Measurements from ChEMBL document CHEMBL1139459, “Effects of pH on the cytotoxicity of sodium trioxodinitrate (Angeli's salt)” (J Med Chem, 2004).

Assays:
[1] = pK1 was determined; type: ADME; settings: read-out: pK1
[2] = pK2 was determined; type: ADME; settings: read-out: pK2

[O-]/[N+](O)=N\O
pKa [1]: 3
pKa [2]: 9.35
